Article PMC7582507, “SARs for the Antiparasitic Plant Metabolite Pulchrol. Part 2: B- and C-Ring Substituents” (Molecules, 2020)
Where two headings read alike, the source gives them in different places.

What was measured:
[1] = tested on: Leishmania amazonensis promastigotes; assay: Leishmanicidal activity against L. amazonensis promastigotes (XTT, 72 h); conditions: for IC50: 72 h; for selectivity ratio at 72 h: mouse (RAW cells), Leishmania amazonensis (parasite), L. amazoniensis SI (selectivity index, cytotoxicity/anti-protozoal activity); for selectivity ratio at 72 h / L. amazoniensis SI (selectivity index, cytotoxicity/anti-protozoal activity): IC50 RAW cells / IC50 L. amazonensis
[2] = Cytotoxicity on RAW cells (resazurin, 72 h); conditions: mouse
[3] = tested on: Trypanosoma cruzi epimastigotes; assay: Trypanocidal activity against T. cruzi epimastigotes (XTT, 72 h); assay type: cell-based; conditions: for IC50: 72 h; for selectivity ratio at 72 h: mouse (RAW cells), Trypanosoma cruzi (parasite), RAW 264.7 macrophage cells versus T. cruzi epimastigotes, read-out: T. cruzi SI (selectivity index, cytotoxicity/anti-protozoal activity); for selectivity ratio at 72 h / T. cruzi SI (selectivity index, cytotoxicity/anti-protozoal activity): IC50 RAW cells / IC50 T. cruzi
Description: Cultures of Trypanosoma cruzi (epimastigotes, donated by the Parasitology Department of INLASA, Tc-INLASA, city, country), were maintained in medium LIT (pH 7.2), supplemented with 10% FBS and incubated at 26 °C. Medium changes were made every 72 h to maintain a viable parasitic population. Trypanocidal activity was determined according to Muelas-Serrano with some modifications. Samples were dissolved in DMSO (maximum final concentration 1%) at 10 mg/mL. Epimastigotes in logarithmic phase of growth, at a concentration of 3 × 10^6 parasites/mL, were distributed (100 μL/well) in 96-well flat bottom microtiter plates. Samples at different concentrations (3.1–100 μg/mL) were added (100 μL). Benznidazole (3.1–100 μg/mL) was used as the control drug. Assays were performed in triplicates. The microwell plates were incubated for 72 h at 26 °C. After incubation, a solution of XTT (1 mg/mL) in PBS (pH 7.0 at 37 °C) with PMS (0.06 mg/mL) was added (50 μL/well) and incubated for 4 h at 26 °C. The optical density of each well was measured and the IC50 values were calculated. A negative control experiments with only 1% DMSO was carried out, showing that the solvent by itself has no antiparasitic activity.

[4] = tested on: Leishmania braziliensis promastigotes; assay: Leishmanicidal activity against L. braziliensis promastigotes (XTT, 72 h); conditions: for IC50: 72 h; for selectivity ratio at 72 h: mouse (RAW cells), Leishmania braziliensis (parasite), L. brasiliensis SI (selectivity index, cytotoxicity/anti-protozoal activity); for selectivity ratio at 72 h / L. brasiliensis SI (selectivity index, cytotoxicity/anti-protozoal activity): IC50 RAW cells / IC50 L. braziliensis
CB2 receptor = conditions: cited from earlier work
[5] = tested on: Raw 264.7 murine macrophage cell line; assay: Cytotoxicity on RAW cells (resazurin, 72 h); conditions: read-out: Cytotoxicity IC50; RAW cells, 72 h, average ± SD of at least three experiments
[6] = tested on: Leishmania amazonensis promastigotes; conditions: stated as previously investigated and reported, read-out: IC50 against L. amazonesis promastigotes; cited from earlier work
[7] = Leishmania amazonensis, read-out: L. amazoniensis IC50, promastigotes, 72 h, average ± SD of at least three experiments
[8] = Trypanosoma cruzi, epimastigotes, average ± SD of at least three experiments, read-out: T. cruzi IC50
[9] = read-out: L. brasiliensis IC50, promastigotes, 72 h, average ± SD of at least three experiments
[10] = RAW 264.7 macrophage cells, Cytotoxicity IC50, RAW cells, 72 h, average ± SD of at least three experiments
[11] = epimastigotes, average ± SD of at least three experiments, read-out: T. cruzi IC50
[12] = read-out: L. amazoniensis IC50, promastigotes, average ± SD of at least three experiments
[13] = read-out: L. brasiliensis IC50, promastigotes, average ± SD of at least three experiments

COc1ccc2c(c1)OC(C)(C)c1ccc(CO)cc1-2 [10a, (3-Methoxy-6,6-dimethyl-6H-benzo[c]chromen-9-yl)methanol]
IC50 [1, 7]: 66.6 ± 7.4 µM | selectivity ratio at 72 h [1]: 0.9 | IC50 at 72 h [2]: 59.2 ± 25.9 µM | IC50 [3, 8]: 88.4 ± 12.2 µM | selectivity ratio at 72 h [3]: 0.7 | IC50 [4, 9]: 37.4 ± 1.1 µM | selectivity ratio at 72 h [4]: 1.6

COc1ccc2c(c1)-c1cc(CO)ccc1CO2 [8a, (2-Methoxy-6H-benzo[c]chromen-9-yl)methanol]
IC50 [1, 7]: 132 ± 29.3 µM | selectivity ratio at 72 h [1]: 0.6 | IC50 at 72 h [2, 10]: 82.6 ± 9.5 µM | IC50 ([3]; Trypanosoma cruzi, read-out: T. cruzi IC50, epimastigotes, 72 h, average ± SD of at least three experiments): 66.6 µM | IC50 [3, 11]: 66 ± 18.2 µM | selectivity ratio at 72 h [3]: 1.3 | IC50 [4, 9]: 248 ± 54.1 µM | selectivity ratio at 72 h [4]: 0.3

CCCCC1(CCCC)Oc2ccc(OC)cc2-c2cc(CO)ccc21 [8g, (6,6-Dibutyl-2-methoxy-6H-benzo[c]chromen-9-yl)methanol]
IC50 [1, 7]: 25.4 ± 1.1 µM | selectivity ratio at 72 h [1]: 1.4 | IC50 at 72 h [2]: 35.3 ± 17.5 µM | IC50 [3, 8]: 22.8 ± 8.5 µM | selectivity ratio at 72 h [3]: 1.5 | IC50 [4, 9]: 29.3 ± 1.4 µM | selectivity ratio at 72 h [4]: 1.2

CC1(C)Oc2ccccc2-c2cc(CO)ccc21 [10e, (6,6-Dimethyl-6H-benzo[c]chromen-9-yl)methanol]
IC50 [1, 7]: 91.6 ± 5.4 µM | selectivity ratio at 72 h [1]: 0.7 | IC50 at 72 h [2, 10]: 62.4 ± 6.2 µM | IC50 [3, 8]: 50.8 ± 6.2 µM | selectivity ratio at 72 h [3]: 1.2 | IC50 [4, 9]: 74.9 ± 16.6 µM | selectivity ratio at 72 h [4]: 0.8

CCCCCc1cc(O)c2c(c1)OC(C)(C)c1ccc(C)cc1-2 [Cannabinol]
affinity for the CB2 receptor compared to THC (CB2 receptor): 10 times

CC(C)c1ccc2c(c1)OC(C)(C)c1ccc(CO)cc1-2 [10g, (3-Isopropyl-6,6-dimethyl-6H-benzo[c]chromen-9-yl)methanol]
IC50 [1, 7]: 21.2 ± 7.1 µM | selectivity ratio at 72 h [1]: 1 | IC50 at 72 h [2]: 22 ± 7.1 µM | IC50 [3, 8]: 14.2 ± 4.2 µM | selectivity ratio at 72 h [3]: 1.6 | IC50 [4, 9]: 19.1 ± 1.1 µM | selectivity ratio at 72 h [4]: 1.1

Cc1ccc2c(c1)OC(C)(C)c1ccc(CO)cc1-2 [10d, (3,6,6-Trimethyl-6H-benzo[c]chromen-9-yl)methanol]
IC50 [1, 7]: 51.9 ± 13.8 µM | selectivity ratio at 72 h [1]: 0.7 | IC50 at 72 h [2]: 35.4 ± 7.9 µM | IC50 [3, 8]: 33 ± 3.9 µM | selectivity ratio at 72 h [3]: 1.1 | IC50 [4, 9]: 40.1 ± 8.3 µM | selectivity ratio at 72 h [4]: 0.9

CCCCCCCCCCCCCCCCOP(=O)([O-])OCC[N+](C)(C)C [Miltefosine, reference compound]
IC50 [4, 9]: 13 ± 1.2 µM

COc1ccc2c(c1)-c1cc(CO)ccc1C(C)O2 (stereo not shown) [8c, (2-Methoxy-6-methyl-6H-benzo[c]chromen-9-yl)methanol]
L. amazoniensis SI (selectivity index, cytotoxicity/anti-protozoal activity) [1]: 0.7 | IC50 [1, 12]: 71.8 ± 12.5 µM | IC50 [5]: 52.7 ± 9 µM | T. cruzi SI (selectivity index, cytotoxicity/anti-protozoal activity) [3]: 0.8 | IC50 [3, 11]: 67.1 ± 31.2 µM | L. brasiliensis SI (selectivity index, cytotoxicity/anti-protozoal activity) [4]: 0.4 | IC50 [4, 13]: 129 ± 24.6 µM

COc1ccc2c(c1)-c1cc(CO)ccc1C(C)(C)O2 [compound 1, pulchrol]
L. amazoniensis SI (selectivity index, cytotoxicity/anti-protozoal activity) [1]: 0.4 | IC50 [5]: 30.7 ± 1.1 µM | T. cruzi SI (selectivity index, cytotoxicity/anti-protozoal activity) [3]: 1.7 | IC50 [3, 8]: 18.5 ± 9.6 µM | IC50 [4, 9]: 59.2 ± 11.8 µM | L. brasiliensis SI (selectivity index, cytotoxicity/anti-protozoal activity) [4]: 0.5 | IC50 [6]: 77.7 µM

CCC1Oc2ccc(OC)cc2-c2cc(CO)ccc21 (stereo not shown) [8d, (6-Ethyl-2-methoxy-6H-benzo[c]chromen-9-yl)methanol]
IC50 [1, 7]: 71.4 ± 1.1 µM | selectivity ratio at 72 h [1]: 0.4 | IC50 at 72 h [2, 10]: 30 ± 3.7 µM | IC50 [3, 8]: 51.8 ± 9.2 µM | selectivity ratio at 72 h [3]: 0.6 | IC50 [4, 9]: 45.9 ± 20.3 µM | selectivity ratio at 72 h [4]: 0.7

CC(C)c1ccc2c(c1)-c1cc(CO)ccc1C(C)(C)O2 [10f, (2-Isopropyl-6,6-dimethyl-6H-benzo[c]chromen-9-yl)methanol]
IC50 [1, 7]: 15.6 ± 2.8 µM | selectivity ratio at 72 h [1]: 0.6 | IC50 at 72 h [2]: 8.9 ± 3.5 µM | IC50 [3, 8]: 12.4 ± 3.5 µM | selectivity ratio at 72 h [3]: 0.7 | IC50 [4, 9]: 18.1 ± 0.7 µM | selectivity ratio at 72 h [4]: 0.5

O=C(Cn1ccnc1[N+](=O)[O-])NCc1ccccc1 [Benznidazole, reference compound]
IC50 [5]: 74.7 ± 9.1 µM | T. cruzi SI (selectivity index, cytotoxicity/anti-protozoal activity) [3]: 3.9 | IC50 [3, 8]: 19.2 ± 7.7 µM

COc1cccc2c1-c1cc(CO)ccc1C(C)(C)O2 [10b, (1-Methoxy-6,6-dimethyl-6H-benzo[c]chromen-9-yl)methanol]
IC50 [1, 7]: 180 ± 21.9 µM | selectivity ratio at 72 h [1]: 0.3 | IC50 at 72 h [2]: 48.1 ± 18.5 µM | IC50 [3, 8]: 92.5 ± 14.8 µM | selectivity ratio at 72 h [3]: 0.5 | IC50 [4, 9]: 48.1 ± 18.5 µM | selectivity ratio at 72 h [4]: 1

COc1ccc2c(c1)-c1cc(CO)ccc1C(C)O2 (stereo not shown) [8b, (2-Methoxy-6-methyl-6H-benzo[c]chromen-9-yl)methanol]
L. amazoniensis SI (selectivity index, cytotoxicity/anti-protozoal activity) [1]: 0.2 | IC50 [1, 12]: 156 ± 58.5 µM | IC50 at 72 h [2, 10]: 37.1 ± 3.9 µM | IC50 [3, 8]: 35.9 ± 11.7 µM | selectivity ratio at 72 h [3]: 1 | IC50 [4, 9]: 156 ± 23.4 µM | selectivity ratio at 72 h [4]: 0.2

CCCCCc1ccc2c(c1)-c1cc(CO)ccc1C(C)(C)O2 [10h, (6,6-Dimethyl-2-pentyl-6H-benzo[c]chromen-9-yl)methanol]
IC50 [1, 7]: 16.8 ± 1.9 µM | selectivity ratio at 72 h [1]: 0.8 | IC50 at 72 h [2]: 12.9 ± 3.2 µM | IC50 [3, 8]: 6.4 ± 0.3 µM | selectivity ratio at 72 h [3]: 2 | IC50 [4, 9]: 16.4 ± 0.3 µM | selectivity ratio at 72 h [4]: 0.8

CCC1(CC)Oc2ccc(OC)cc2-c2cc(CO)ccc21 [8f, (6,6-Diethyl-2-methoxy-6H-benzo[c]chromen-9-yl)methanol]
IC50 [1, 7]: 36.9 ± 3.4 µM | selectivity ratio at 72 h [1]: 1.2 | IC50 at 72 h [2, 10]: 43.6 ± 15.1 µM | IC50 [3, 8]: 10.4 ± 0.3 µM | selectivity ratio at 72 h [3]: 4.2 | IC50 [4, 9]: 46.9 ± 5 µM | selectivity ratio at 72 h [4]: 0.9

Cc1ccc2c(c1)-c1cc(CO)ccc1C(C)(C)O2 [10c, (2,6,6-Trimethyl-6H-benzo[c]chromen-9-yl)methanol]
IC50 [1, 7]: 64.9 ± 12.6 µM | selectivity ratio at 72 h [1]: 0.6 | IC50 at 72 h [2, 10]: 39.3 ± 1.6 µM | IC50 [3, 8]: 31.5 ± 7.9 µM | selectivity ratio at 72 h [3]: 1.3 | IC50 [4, 9]: 39.3 ± 2.4 µM | selectivity ratio at 72 h [4]: 1

CCC1Oc2ccc(OC)cc2-c2cc(CO)ccc21 (stereo not shown) [8e, (6-Ethyl-2-methoxy-6H-benzo[c]chromen-9-yl)methanol]
L. amazoniensis SI (selectivity index, cytotoxicity/anti-protozoal activity) [1]: 0.6 | IC50 [1, 12]: 70.3 ± 3.7 µM | IC50 [5]: 44.4 ± 11.5 µM | T. cruzi SI (selectivity index, cytotoxicity/anti-protozoal activity) [3]: 1.2 | IC50 [3, 11]: 37 ± 0.7 µM | L. brasiliensis SI (selectivity index, cytotoxicity/anti-protozoal activity) [4]: 1.0 | IC50 [4, 13]: 45.1 ± 19.2 µM
